What was measured:
SC10 = test: Proliferation assay (population growth curves, DIP rates) in SKMEL5 subline SC10; type: cell-based, human; settings: for effect of combination with BRAFi on proliferation (DIP rates): combination with PLX4720 8 μM
Procedure: The cells are labeled lentivirally with a fluorescent, nuclear tag (Histone 2B monomeric Red Fluorescent Protein, H2BmRFP from AddGene), flow sorted for H2BmRFP positivity (top 10-15% brightest), and fluorescently counted under drug treatments. Cells are seeded into 96 well plates (1-5,000 cells per well) and drug treatments applied the following day, including DMSO or PBS control (all concentrations contained equal percentage of DMSO or PBS solvent). Images are taken every 8-12 hours with sufficient image alignment (montaging) in order to capture about 25-100 cells per well/treatment (over the course of the experiment, cell counts typically exceed 1,000 in DMSO or low drug concentration wells). Direct measurements of cell counts are made using Cellavista software and Image J macros. The images are filtered through these computer programs to track and label each cell, quantifying the number of cells in each time-stamped frame. Proliferation is platted as log2 normalized growth, using the initial cell count from the first image frame for normalization. Dose-response curves are generated using a 2-fold dilution of single drugs at various concentrations ranked highest to zero (zero containing only the solvent the drug was dissolved in, being either DMSO or H2O); all concentrations contained equal volumes of the solvent used. For combinations with PLX4720 (BRAF inhibitor), 8 μM PLX4720 was used as diluent, and serially diluted with the second drug from highest concentration to lowest. The drug-induced proliferation (DIP) rates (see, Harris, L. A., et al. “An unbiased metric of antiproliferative drug effect in vitro,” Nature Methods', 2016, vol. 13, p. 497-500.) are calculated using the slope of the log2-normalized population curves after 24 hrs. BRAF-mutated melanoma cells (SKMEL5, A375, WM793, SKMEL19, SKMEL28, WM164, WM88, A2058) were grown and cultured in Dulbecco's modified Eagle's medium and Ham's F-12 medium (DMEM:F12, 1:1. Cat #11330-032). Media were obtained from Gibco (Grand Island, N.Y.) and supplemented with 10% FBS, All cells were cultured in CO2, temperature-controlled (37° C.), and humidified incubators. Cells were tested for mycoplasma before use and confirmed negative. Cells were passaged 1-2× per week and maintained as exponentially growing cultures for a maximum of less than 2.0 passages. Unless otherwise indicated, cells were seeded 16-24 h prior to treatment to allow cells to adhere to culture plates. Reagents/drugs were prepared in complete medium immediately prior to adding to cells by replacement. PLX4720 (Cat #S1152) and vemurafenib (Cat #S1267) were obtained from Selleckchem (Houston, Tex.) solubilized in dimethyl sulfoxide (DMSO) at a stock concentration of 10 mM. […]

A2058 cells = test: Proliferation assay (population growth curves, DIP rates) in A2058 cells; type: cell-based, human
Procedure: The cells are labeled lentivirally with a fluorescent, nuclear tag (Histone 2B monomeric Red Fluorescent Protein, H2BmRFP from AddGene), flow sorted for H2BmRFP positivity (top 10-15% brightest), and fluorescently counted under drug treatments. Cells are seeded into 96 well plates (1-5,000 cells per well) and drug treatments applied the following day, including DMSO or PBS control (all concentrations contained equal percentage of DMSO or PBS solvent). Images are taken every 8-12 hours with sufficient image alignment (montaging) in order to capture about 25-100 cells per well/treatment (over the course of the experiment, cell counts typically exceed 1,000 in DMSO or low drug concentration wells). Direct measurements of cell counts are made using Cellavista software and Image J macros. The images are filtered through these computer programs to track and label each cell, quantifying the number of cells in each time-stamped frame. Proliferation is platted as log2 normalized growth, using the initial cell count from the first image frame for normalization. […] The drug-induced proliferation (DIP) rates (see, Harris, L. A., et al. “An unbiased metric of antiproliferative drug effect in vitro,” Nature Methods', 2016, vol. 13, p. 497-500.) are calculated using the slope of the log2-normalized population curves after 24 hrs. […]

Row | Compound | effect of combination with BRAFi on proliferation (DIP rates) (SC10) | effect of combination with BRAFi on proliferation (DIP rates) (A2058 cells; DPI 250 nM, BRAFi 8 μM, FIG. 6A) | DIP rates under BRAF-inhibition (SC10) | DIP rates under BRAF-inhibition (A2058 cells)
1 | COc1cc(C(C)=O)ccc1O [Apocynin] | synergism | – | – | –
2 | c1ccc2c(c1)[I+]c1ccccc1-2 [DPI, Diphenyleneiodonium chloride] | synergism | enhancement of NOX-inhibition on the anti-proliferative effects of BRAF-inhibition | – | –
3 | CN(C)c1cccc(-c2c3c(=O)n(-c4ccccc4Cl)[nH]c3cc(=O)n2C)c1 [GKT137831] | synergism | – | – | –
4 | CCCS(=O)(=O)Nc1ccc(F)c(C(=O)c2c[nH]c3ncc(Cl)cc23)c1F [PLX4720] | – | – | positive DIP rates | positive DIP rates

From patent US20230084515A1, “THERAPEUTIC METHODS AND COMPOSITIONS FOR TREATING CANCER USING BRAF AND/OR MEK INHIBITOR COMBINATION THERAPY” (Vanderbilt University, priority 2020, published 2023)
